According to US20240083857A1, “2-Methyl-Quinazolines” (Bayer Pharma Aktiengesellschaft, priority 2017, published 2024):
Where two headings read alike, the source gives them in different places.

Tests used:
[1] = biological target: human SOS1 (nucleotide exchange of K-Ras^G12C) (Homo sapiens, UniProt Q07889); test: Biochemical assay 2: K-Ras^G12C activation assay by hSOS1 at high GTP concentration (HTRF); details: high GTP; for IC50: read-out: Assay 2 (KRAS-Activation by SOS high GTP) activity expressed as IC50
[2] = biological target: Epidermal Growth Factor Receptor (EGFR) (Homo sapiens (Human), UniProt P00533); test: EGFR kinase assay (TR-FRET); type: biochemical; details: read-out: EGFR kinase inhibition IC50
Method in brief: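 EGFR purified from A431 cells was preincubated with compound 15 min at 22° C in pH 7.0 Hepes buffer with MgCl2, MnCl2 and vanadate before reaction with a biotinylated peptide. After EDTA stop, phosphopeptide was detected by TR-FRET (anti-phosphotyrosine Tb-cryptate, streptavidin-XL665) as the 665/620 nm emission ratio.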

Chain of Epidermal Growth Factor Receptor (EGFR) (P00533 25-1210): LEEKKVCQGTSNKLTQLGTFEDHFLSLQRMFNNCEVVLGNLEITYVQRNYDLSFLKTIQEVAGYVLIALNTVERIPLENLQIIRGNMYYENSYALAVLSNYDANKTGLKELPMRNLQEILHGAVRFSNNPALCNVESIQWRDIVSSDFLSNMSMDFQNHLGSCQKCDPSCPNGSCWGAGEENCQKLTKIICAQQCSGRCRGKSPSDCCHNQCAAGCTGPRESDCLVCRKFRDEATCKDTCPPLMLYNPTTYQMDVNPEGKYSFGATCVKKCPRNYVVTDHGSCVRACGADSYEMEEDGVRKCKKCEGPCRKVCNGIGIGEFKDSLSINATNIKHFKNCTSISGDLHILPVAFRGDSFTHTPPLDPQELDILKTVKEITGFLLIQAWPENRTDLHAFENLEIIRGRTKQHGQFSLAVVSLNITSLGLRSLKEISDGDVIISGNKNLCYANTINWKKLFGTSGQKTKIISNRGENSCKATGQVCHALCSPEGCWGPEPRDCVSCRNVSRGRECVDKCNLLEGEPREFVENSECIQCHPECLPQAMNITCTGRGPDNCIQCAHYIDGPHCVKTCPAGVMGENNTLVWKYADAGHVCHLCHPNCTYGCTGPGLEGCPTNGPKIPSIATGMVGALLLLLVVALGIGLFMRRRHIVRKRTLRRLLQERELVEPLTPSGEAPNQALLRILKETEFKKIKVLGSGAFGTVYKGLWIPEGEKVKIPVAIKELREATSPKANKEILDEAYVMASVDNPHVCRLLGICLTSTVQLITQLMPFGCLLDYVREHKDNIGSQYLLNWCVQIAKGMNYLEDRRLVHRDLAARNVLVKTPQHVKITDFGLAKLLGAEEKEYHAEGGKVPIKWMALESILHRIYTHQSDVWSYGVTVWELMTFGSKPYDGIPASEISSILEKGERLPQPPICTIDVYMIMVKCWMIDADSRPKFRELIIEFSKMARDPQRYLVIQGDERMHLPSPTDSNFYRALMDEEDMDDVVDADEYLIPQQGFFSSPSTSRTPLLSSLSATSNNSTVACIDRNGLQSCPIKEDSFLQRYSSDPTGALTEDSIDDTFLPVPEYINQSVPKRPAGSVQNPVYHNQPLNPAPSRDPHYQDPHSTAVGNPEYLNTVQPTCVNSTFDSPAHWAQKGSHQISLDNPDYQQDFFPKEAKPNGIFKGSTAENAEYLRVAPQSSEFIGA

Structure (SMILES)	IC50 [1] [nM]	IC50 ([2]; values given in μM) [µM]	inhibition at 20 µM ([1]; read-out: Assay 2 (KRAS-Activation by SOS high GTP) activity expressed as % inhibition at 20 μM, at 20 μM) [%]	IC50 ([2]; unit inferred) [µM]
COc1cc2nc(C)nc(NC(C)c3ccc4c(c3)OCO4)c2cc1OC (stereo not shown) [Example 23, N-[1-(1,3-benzodioxol-5-yl)ethyl]-6,7-dimethoxy-2-methylquinazolin-4-amine]	1850	> 20	–	–
COc1cc2nc(C)nc(NC(C)c3ccc4c(c3)NC(=O)CO4)c2cc1OC (stereo not shown) [Example 34, 6-{1-[(6,7-dimethoxy-2-methylquinazolin-4-yl)amino]ethyl}-2H-1,4-benzoxazin-3(4H)-one]	3710	> 20	–	–
COc1cc2nc(C)nc(N[C@H](C)c3cccc(-c4cn[nH]c4)c3)c2cc1O [Example 345, 7-methoxy-2-methyl-4-({(1R)-1-[3-(1H-pyrazol-4-yl)phenyl]ethyl}amino)quinazolin-6-ol]	7840	> 20	–	–
COc1cc2nc(C)nc(NC(C)c3ccc(-c4ccccc4[C@@H](C)NC(=O)OC(C)(C)C)s3)c2cc1OC (stereo in doubt) [Example 358, tert-butyl {1-[2-(5-{1-[(6,7-dimethoxy-2-methylquinazolin-4-yl)amino]ethyl}thiophen-2-yl)phenyl]ethyl}carbamate]	1530	> 20	–	–
COc1cc2nc(C)nc(N[C@H](C)c3cccc(-c4cn[nH]c4)c3)c2cc1OCc1ccccc1 [Example 344, 6-(benzyloxy)-7-methoxy-2-methyl-N-{(1R)-1-[3-(1H-pyrazol-4-yl)phenyl]ethyl}-quinazolin-4-amine]	1190	> 20	–	–
COc1cc2nc(C)nc(N[C@H](C)c3cccc(-n4cccn4)c3)c2cc1OC [Example 341, 6,7-dimethoxy-2-methyl-N-{(1R)-1-[3-(1H-pyrazol-1-yl)phenyl]ethyl}quinazolin-4-amine]	3730	> 20	–	–
CCOc1cc2c(N[C@H](C)c3cccc(-c4cn[nH]c4)c3)nc(C)nc2cc1OC [Example 355, 6-Ethoxy-7-methoxy-2-methyl-N-{(1R)-1-[3-(1H-pyrazol-4-yl)phenyl]ethyl}-quinazolin-4-amine]	571	> 20	–	–
COc1ccc2cc(C(C)Nc3nc(C)nc4cc(OC)c(OC)cc34)ccc2c1 (stereo not shown) [Example 35, 6,7-dimethoxy-N-[1-(6-methoxy-2-naphthyl)ethyl]-2-methylquinazolin-4-amine]	4780	> 20	–	–
COc1cc2nc(C)nc(N[C@H](C)c3cccc(-c4cn[nH]c4)c3)c2cc1OCCC(C)C [Example 351, 7-methoxy-2-methyl-6-(3-methylbutoxy)-N-{(1R)-1-[3-(1H-pyrazol-4-yl)phenyl]ethyl}quinazolin-4-amine]	1200	> 20	–	–
CCCCNCc1ccccc1-c1ccc(C(C)Nc2nc(C)nc3cc(OC)c(OC)cc23)s1 (stereo not shown) [Example 366, N-[1-(5-{2-[(butylamino)methyl]phenyl}thiophen-2-yl)ethyl]-6,7-dimethoxy-2-methylquinazolin-4-amine]	96.9	> 20	–	–
COc1cc2nc(C)nc(N[C@H](C)c3cccc(-c4cn[nH]c4)c3)c2cc1OC(C)C [Example 353, 7-methoxy-2-methyl-6-(propan-2-yloxy)-N-{(1R)-1-[3-(1H-pyrazol-4-yl)phenyl]ethyl}quinazolin-4-amine]	420	> 20	–	–
CCOc1cc2c(N[C@H](C)c3cccc(-c4cnn(CC)c4)c3)nc(C)nc2cc1OC [Example 356, 6-ethoxy-N-{(1R)-1-[3-(1-ethyl-1H-pyrazol-4-yl)phenyl]ethyl}-7-methoxy-2-methylquinazolin-4-amine]	777	> 20	–	–
CCCCOc1cc2c(N[C@H](C)c3cccc(-c4cn[nH]c4)c3)nc(C)nc2cc1OC [Example 350, 6-butoxy-7-methoxy-2-methyl-N-{(1R)-1-[3-(1H-pyrazol-4-yl)phenyl]ethyl}quinazolin-4-amine]	736	> 20	–	–
COc1cc2nc(C)nc(NC(C)c3csc4ccccc34)c2cc1OC (stereo not shown) [Example 27, N-[1-(1-benzothiophen-3-yl)ethyl]-6,7-dimethoxy-2-methylquinazolin-4-amine]	402	> 20	–	–
Cc1nc(N[C@H](C)c2ccc(F)cc2)c2cc(N=S(C)(C)=O)ccc2n1 [Example 32, 6-{[dimethyl(oxido)-lambda6-sulfanylidene]amino}-N-[(1R)-1-(4-fluorophenyl)ethyl]-2-methylquinazolin-4-amine]	1400	> 20	–	–
Cc1nc(N[C@H](C)c2cccc(Cl)c2)c2cc(Br)ccc2n1 [Example 363, 6-bromo-N-[(1R)-1-(3-chlorophenyl)ethyl]-2-methylquinazolin-4-amine]	11300	> 20	–	–

Structure (SMILES)	IC50 [1] [nM]	IC50 ([2]; values given in μM) [µM]	inhibition at 20 µM ([1]; read-out: Assay 2 (KRAS-Activation by SOS high GTP) activity expressed as % inhibition at 20 μM, at 20 μM) [%]	IC50 ([2]; unit inferred) [µM]
COc1cc2nc(C)nc(NC(C)c3ccc(-c4ccccc4CNCc4ccccc4)s3)c2cc1OC (stereo not shown) [Example 365, N-[1-(5-{2-[(benzylamino)methyl]phenyl}thiophen-2-yl)ethyl]-6,7-dimethoxy-2-methylquinazolin-4-amine]	299	> 20	–	–
COc1cc2nc(C)nc(NC(C)c3ccc(-c4ccccc4CNC4CCCC4)s3)c2cc1OC (stereo not shown) [Example 364, N-[1-(5-{2-[(cyclopentylamino)methyl]phenyl}thiophen-2-yl)ethyl]-6,7-dimethoxy-2-methylquinazolin-4-amine]	158	> 20	–	–
COc1cc2nc(C)nc(NC(C)c3c(C)nc4ccccn34)c2cc1OC (stereo not shown) [Example 26, 6,7-dimethoxy-2-methyl-N-[1-(2-methylimidazo[1,2-a]pyridin-3-yl)ethyl]quinazolin-4-amine]	–	> 20	52	–
COc1cc2nc(C)nc(N[C@H](C)c3cccc(-c4cn[nH]c4)c3)c2cc1OCC1CC1 [Example 346, 6-(cyclopropylmethoxy)-7-methoxy-2-methyl-N-{(1R)-1-[3-(1H-pyrazol-4-yl)phenyl]ethyl}quinazolin-4-amine]	395	> 20	–	–
CC[C@@H](O)c1ccccc1-c1ccc(C(C)Nc2nc(C)nc3cc(OC)c(OC)cc23)s1 (stereo partly drawn) [Example 349, (1R)-1-[2-(5-{1-[(6,7-dimethoxy-2-methylquinazolin-4-yl)amino]ethyl}thiophen-2-yl)phenyl]propan-1-ol]	649	> 20	–	–
COc1cc2nc(C)nc(NC(C)c3ccc4c(c3)CCO4)c2cc1OC (stereo not shown) [Example 24, N-[1-(2,3-dihydro-1-benzofuran-5-yl)ethyl]-6,7-dimethoxy-2-methylquinazolin-4-amine]	1220	> 20	–	–
Cc1nc(N[C@H](C)c2ccccc2)c2cc(N=S(C)(C)=O)ccc2n1 [Example 30, 6-{[dimethyl(oxido)-lambda6-sulfanylidene]amino}-2-methyl-N-[(1R)-1-phenylethyl]quinazolin-4-amine]	1100	> 20	–	–
COc1cc2nc(C)nc(NC(C)c3ccc(-c4ccccc4-c4cn[nH]c4)s3)c2cc1OC (stereo not shown) [Example 361, 6,7-dimethoxy-2-methyl-N-[1-{5-[2-(1H-pyrazol-4-yl)phenyl]thiophen-2-yl}ethyl]-quinazolin-4-amine]	4050	> 20	–	–
COc1cc2nc(C)nc(NC(C)c3ccc(-c4ccccc4CCNC(=O)OC(C)(C)C)s3)c2cc1OC (stereo not shown) [Example 352, tert-butyl {2-[2-(5-{1-[(6,7-dimethoxy-2-methylquinazolin-4-yl)amino]ethyl}thiophen-2-yl)phenyl]ethyl}carbamate]	12200	> 20	–	–
CCNCc1ccccc1-c1ccc(C(C)Nc2nc(C)nc3cc(OC)c(OC)cc23)s1 (stereo not shown) [Example 367, N-[1-(5-{2-[(ethylamino)methyl]phenyl}thiophen-2-yl)ethyl]-6,7-dimethoxy-2-methylquinazolin-4-amine]	61.3	> 20	–	–
COc1cc2nc(C)nc(N[C@H](C)c3ccc(-c4ccccc4CCN)s3)c2cc1OC (stereo in doubt) [Example 357, N-[1-{5-[2-(2-aminoethyl)phenyl]thiophen-2-yl}ethyl]-6,7-dimethoxy-2-methylquinazolin-4-amine]	48.8	> 20	–	–
COc1cc2nc(C)nc(N[C@H](C)c3cccc(-c4cn[nH]c4)c3)c2cc1OCC1COC1 [Example 354, 7-methoxy-2-methyl-6-(oxetan-3-ylmethoxy)-N-{(1R)-1-[3-(1H-pyrazol-4-yl)phenyl]ethyl}quinazolin-4-amine]	516	> 20	–	–
COc1cc2nc(C)nc(N[C@H](C)c3cccc(-c4ccc(O)nc4)c3)c2cc1OC [Example 68, 5-(3-{(1R)-1-[(6,7-dimethoxy-2-methylquinazolin-4-yl)amino]ethyl}phenyl)pyridin-2-ol]	486	–	–	6.92
COc1cc2nc(C)nc(N[C@H](C)c3cccc(Br)c3)c2cc1OCc1ccccc1 [Example 343, 6-(benzyloxy)-N-[(1R)-1-(3-bromophenyl)ethyl]-7-methoxy-2-methylquinazolin-4-amine]	1610	> 20	–	–
COc1cc2nc(C)nc(NC(C)c3ccc(-c4ccccc4[C@@H](C)N)s3)c2cc1OC (stereo in doubt) [Example 359, N-[1-(5-{2-[1-aminoethyl]phenyl}thiophen-2-yl)ethyl]-6,7-dimethoxy-2-methylquinazolin-4-amine]	200	> 20	–	–
COCCOc1cc2c(N[C@H](C)c3cccc(-c4cn[nH]c4)c3)nc(C)nc2cc1OC [Example 348, 7-methoxy-6-(2-methoxyethoxy)-2-methyl-N-{(1R)-1-[3-(1H-pyrazol-4-yl)phenyl]-ethyl}quinazolin-4-amine]	816	> 20	–	–
